Test results: patent publication US11179390B2, “Subcutaneous administration of a P2Y12 receptor antagonist” (Idorsia Pharmaceuticals Ltd, priority 2017, dated 2021)
Read-outs that look alike come from different tables or passages of the source.

Tests used:
[1] = test system: FeCl3 rat thrombosis model; conditions: compared with Ticagrelor; cited from earlier work
[2] = oral administration of Compound 1 or its prodrug, clinical phase I study; cited from earlier work
[3] = test system: Adenosine diphosphate (ADP)-induced platelet aggregation; experiment: Inhibition of platelet aggregation (IPA), LTA assay, after single subcutaneous doses, clinical phase I study; type: in vivo, human (healthy male subjects); conditions: for % IPA (inhibition of platelet aggregation) calculated using maximum platelet aggregation values, mean ± SD: N = 6, 20 μM ADP
Procedure: (§1) The time- and dose-dependency of plasma concentration and inhibition of platelet aggregation (IPA) after subcutaneous administration of Compound 1 was investigated in a clinical phase I study in healthy male subjects.
(§2) In a randomized, double-blind, placebo-controlled study, 48 subjects in fasted condition were exposed to single, subcutaneous doses ranging from 1 to 32 mg (1 mg, 2 mg, 4 mg, 8 mg, 16 mg and 32 mg) of Compound 1 (n=6 on Compound 1 and n=2 on placebo per dose level).
(§3) Compound 1 for s.c. administration was available as sealed glass vials at the strength of 20 mg. The vials contained lyophilized Compound 1 to be reconstituted with 1 mL of water for injection to prepare stock solutions of 20 mg/mL (see above: Formulation of Compound 1 (higher dose of 20 mg/mL)). These stock solutions were further diluted with 0.9% sodium chloride to prepare 2, 4, 8, 16, and 20 mg/mL solutions. The volume injected was 0.5 mL for dose levels 1, 2, 4, and 8 mg. For dose levels 16 and 32 mg, 1 or 2 injection(s) of 0.8 mL from the 20 mg/mL solution was (were) performed.
(§4) The solution for injection was prepared for administration in a syringe suitable for s.c. injection. The solution was administered as injection(s) in the thigh.
PD blood samples were collected by direct venipuncture or via an i.v. catheter placed in an antecubital vein in the arm, using 18-21 gauge needles. The first 2 mL of blood were discarded, and, thereafter, blood was drawn gently into two open 3.5 mL collection tubes. Collection tubes for LTA (light transmission aggregometry) assays contained phenylalanine-proline-arginine-cholormethylketone (PPACK) as an anticoagulant.
Adenosine diphosphate (ADP)-induced platelet aggregation was evaluated by a LTA assay measuring platelet-induced aggregation as an increase in light transmittance (Michelson A D, Methods for the measurement of platelet function (2009) Am J Cardiol 103(3):20A-26A).
LTA assay: The two 3.5 mL blood samples were centrifuged to prepare platelet-rich plasma (PRP) and platelet-poor plasma (PPP). If needed, PRP was adjusted to a final platelet count of 260×10^9 platelets per liter by dilution with PPP from the same donor. The assay was performed with an 8-channel platelet aggregometer, recording the aggregation after addition of 20 μM ADP as agonist for 6 min. The results are expressed as percent change in light transmittance at maximum (peak) platelet aggregation (MPA), calculated relative to the baseline signal of 0%. The measurements were performed in duplicate.

[4] = Plasma pharmacokinetics after single subcutaneous doses, clinical phase I study; type: in vivo, human (healthy male subjects); conditions: male, human, sc, N = 6, plasma; for half-life: read-out: t1/2, G.M. (converted); for Tmax: read-out: tmax, Median
Procedure: as §1, §2, §3, §4
The plasma PK parameters of Compound 1 were derived by non-compartmental analysis of the plasma concentration-time profiles. The following parameters were obtained:
maximum plasma concentration (Cmax); time to reach Cmax (tmax); area under the plasma concentration-time curve (AUC) from zero to time t of the last measured concentration above the limit of quantification (AUC0−t); and terminal elimination half-life (t1/2).
Blood was collected by direct venipuncture or via an i.v. catheter placed in an antecubital vein in the arm in a 4 mL Monovette® or equivalent tube containing ethylene diamine tetra-acetic acid. Immediately following collection of the required blood volume, the Monovettes® were slowly tilted backwards and forwards (no shaking) to bring the anticoagulant into solution, and immediately cooled on ice. Within 30 min of collection, the Monovettes® were centrifuged at approximately 1500 g for 10 min at 4° C. The plasma was transferred into one labeled polypropylene tube to avoid carry-over of erythrocytes. All samples were stored in an upright position below −70° C.
The analysis of Compound 1 in plasma was performed using a validated liquid chromatography coupled to tandem mass spectrometry assay. The lower limit of quantification (LLOQ) was 1 ng/mL. Concentrations were calculated by interpolation from a calibration curve. Quality control (QC) samples were analyzed throughout the study. Their measured concentrations were used to determine between-run and overall precision and accuracy of the analysis.

[5] = Solubility in aqueous media; type: physicochemical; conditions: lyophilized disodium salt of Compound 1, reconstituted in water, pH=8.4

AUC(0-t) ([4]; 1 mg s.c. single dose): 56.1 ng·h/mL
Cmax ([4]; 1 mg s.c. single dose): 33.7 ng/mL
half-life ([4]; 1 mg s.c. single dose): 1.34 h
Tmax ([4]; 1 mg s.c. single dose): 0.5 h
AUC(0-t) ([4]; 2 mg s.c. single dose): 116 ng·h/mL
Cmax ([4]; 2 mg s.c. single dose): 58.4 ng/mL
half-life ([4]; 2 mg s.c. single dose): 1.92 h
Tmax ([4]; 2 mg s.c. single dose): 0.5 h
AUC(0-t) ([4]; 4 mg s.c. single dose): 261 ng·h/mL
Cmax ([4]; 4 mg s.c. single dose): 128 ng/mL
half-life ([4]; 4 mg s.c. single dose): 2.66 h
Tmax ([4]; 4 mg s.c. single dose): 0.5 h
AUC(0-t) ([4]; 8 mg s.c. single dose): 585 ng·h/mL
Cmax ([4]; 8 mg s.c. single dose): 273 ng/mL
half-life ([4]; 8 mg s.c. single dose): 3.98 h
Tmax ([4]; 8 mg s.c. single dose): 0.5 h
AUC(0-t) ([4]; 16 mg s.c. single dose): 1120 ng·h/mL
Cmax ([4]; 16 mg s.c. single dose): 435 ng/mL
half-life ([4]; 16 mg s.c. single dose): 7.2 h
Tmax ([4]; 16 mg s.c. single dose): 0.75 h
AUC(0-t) ([4]; 32 mg s.c. single dose): 2340 ng·h/mL
Cmax ([4]; 32 mg s.c. single dose): 930 ng/mL
half-life ([4]; 32 mg s.c. single dose): 9.2 h
Tmax ([4]; 32 mg s.c. single dose): 0.75 h
solubility [5]: 75 mg/mL
Structure (SMILES): CCCCOC(=O)N1CCN(C(=O)[C@H](CP(=O)(O)O)NC(=O)c2cc(N3CC[C@H](OC)C3)nc(-c3ccccc3)n2)CC1 [Compound 1, 4-((R)-2-{[6-((S)-3-methoxy-pyrrolidin-1-yl)-2-phenyl-pyrimidine-4-carbonyl]-amino}-3-phosphono-propionyl)-piperazine-1-carboxylic acid butyl ester]
therapeutic window [1]: significantly wider therapeutic window even than Ticagrelor
bleeding events [2]: No bleeding events were observed
% IPA (inhibition of platelet aggregation) calculated using maximum platelet aggregation values, mean ± SD ([3]; 1 mg s.c., 0.25 h): 61.4 ± 15.1%
% IPA (inhibition of platelet aggregation) calculated using maximum platelet aggregation values, mean ± SD ([3]; 1 mg s.c., 0.5 h): 64.4 ± 12.8%
% IPA (inhibition of platelet aggregation) calculated using maximum platelet aggregation values, mean ± SD ([3]; 1 mg s.c., 3 h): 15.8 ± 20.0%
% IPA (inhibition of platelet aggregation) calculated using maximum platelet aggregation values, mean ± SD ([3]; 1 mg s.c., 4 h): −10.0 ± 24.2%
% IPA (inhibition of platelet aggregation) calculated using maximum platelet aggregation values, mean ± SD ([3]; 1 mg s.c., 5 h): −6.1 ± 26.0%
% IPA (inhibition of platelet aggregation) calculated using maximum platelet aggregation values, mean ± SD ([3]; 1 mg s.c., 12 h): −4.5 ± 24.7%
% IPA (inhibition of platelet aggregation) calculated using maximum platelet aggregation values, mean ± SD ([3]; 1 mg s.c., 48 h): −47.7 ± 29.9%
% IPA (inhibition of platelet aggregation) calculated using maximum platelet aggregation values, mean ± SD ([3]; 2 mg s.c., 0.25 h): 60.3 ± 48.3%
% IPA (inhibition of platelet aggregation) calculated using maximum platelet aggregation values, mean ± SD ([3]; 2 mg s.c., 0.5 h): 79.5 ± 10.8%
% IPA (inhibition of platelet aggregation) calculated using maximum platelet aggregation values, mean ± SD ([3]; 2 mg s.c., 3 h): 36.8 ± 30.0%
% IPA (inhibition of platelet aggregation) calculated using maximum platelet aggregation values, mean ± SD ([3]; 2 mg s.c., 4 h): 35.5 ± 18.9%
% IPA (inhibition of platelet aggregation) calculated using maximum platelet aggregation values, mean ± SD ([3]; 2 mg s.c., 5 h): 14.1 ± 28.4%
% IPA (inhibition of platelet aggregation) calculated using maximum platelet aggregation values, mean ± SD ([3]; 2 mg s.c., 12 h): 31.3 ± 28.9%
% IPA (inhibition of platelet aggregation) calculated using maximum platelet aggregation values, mean ± SD ([3]; 2 mg s.c., 48 h): 11.3 ± 38.5%
% IPA (inhibition of platelet aggregation) calculated using maximum platelet aggregation values, mean ± SD ([3]; 4 mg s.c., 0.25 h): 79.7 ± 6.0%
% IPA (inhibition of platelet aggregation) calculated using maximum platelet aggregation values, mean ± SD ([3]; 4 mg s.c., 0.5 h): 84.7 ± 5.4%
% IPA (inhibition of platelet aggregation) calculated using maximum platelet aggregation values, mean ± SD ([3]; 4 mg s.c., 3 h): 58.5 ± 7.2%
% IPA (inhibition of platelet aggregation) calculated using maximum platelet aggregation values, mean ± SD ([3]; 4 mg s.c., 4 h): 50.6 ± 22.1%
% IPA (inhibition of platelet aggregation) calculated using maximum platelet aggregation values, mean ± SD ([3]; 4 mg s.c., 5 h): 47.9 ± 17.9%
% IPA (inhibition of platelet aggregation) calculated using maximum platelet aggregation values, mean ± SD ([3]; 4 mg s.c., 12 h): 37.4 ± 16.7%
% IPA (inhibition of platelet aggregation) calculated using maximum platelet aggregation values, mean ± SD ([3]; 4 mg s.c., 48 h): 2.1 ± 16.3%
% IPA (inhibition of platelet aggregation) calculated using maximum platelet aggregation values, mean ± SD ([3]; 8 mg s.c., 0.25 h): 88.9 ± 8.4%
% IPA (inhibition of platelet aggregation) calculated using maximum platelet aggregation values, mean ± SD ([3]; 8 mg s.c., 0.5 h): 90.0 ± 8.5%
% IPA (inhibition of platelet aggregation) calculated using maximum platelet aggregation values, mean ± SD ([3]; 8 mg s.c., 3 h): 77.9 ± 19.5%
% IPA (inhibition of platelet aggregation) calculated using maximum platelet aggregation values, mean ± SD ([3]; 8 mg s.c., 4 h): 70.9 ± 12.5%
% IPA (inhibition of platelet aggregation) calculated using maximum platelet aggregation values, mean ± SD ([3]; 8 mg s.c., 5 h): 75.2 ± 11.5%
% IPA (inhibition of platelet aggregation) calculated using maximum platelet aggregation values, mean ± SD ([3]; 8 mg s.c., 12 h): 64.0 ± 10.4%
% IPA (inhibition of platelet aggregation) calculated using maximum platelet aggregation values, mean ± SD ([3]; 8 mg s.c., 48 h): −1.3 ± 33.7%
duration for which mean % IPA≥85% was sustained post administration ([3]; 16 mg s.c.): approximately 5 h
% IPA (inhibition of platelet aggregation) calculated using maximum platelet aggregation values, mean ± SD ([3]; 16 mg s.c., 0.25 h): 92.8 ± 5.5%
% IPA (inhibition of platelet aggregation) calculated using maximum platelet aggregation values, mean ± SD ([3]; 16 mg s.c., 0.5 h): 93.1 ± 3.6%
% IPA (inhibition of platelet aggregation) calculated using maximum platelet aggregation values, mean ± SD ([3]; 16 mg s.c., 3 h): 95.0 ± 1.2%
% IPA (inhibition of platelet aggregation) calculated using maximum platelet aggregation values, mean ± SD ([3]; 16 mg s.c., 4 h): 88.2 ± 4.7%
% IPA (inhibition of platelet aggregation) calculated using maximum platelet aggregation values, mean ± SD ([3]; 16 mg s.c., 5 h): 87.6 ± 5.5%
% IPA (inhibition of platelet aggregation) calculated using maximum platelet aggregation values, mean ± SD ([3]; 16 mg s.c., 12 h): 76.0 ± 13.8%
% IPA (inhibition of platelet aggregation) calculated using maximum platelet aggregation values, mean ± SD ([3]; 16 mg s.c., 48 h): −1.6 ± 43.8%
duration for which mean % IPA≥85% was sustained post administration ([3]; 32 mg s.c.): ~12 h
% IPA (inhibition of platelet aggregation) calculated using maximum platelet aggregation values, mean ± SD ([3]; 32 mg s.c., 0.25 h): 95.5 ± 2.7%
% IPA (inhibition of platelet aggregation) calculated using maximum platelet aggregation values, mean ± SD ([3]; 32 mg s.c., 0.5 h): 94.5 ± 2.0%
% IPA (inhibition of platelet aggregation) calculated using maximum platelet aggregation values, mean ± SD ([3]; 32 mg s.c., 3 h): 94.5 ± 2.0%
% IPA (inhibition of platelet aggregation) calculated using maximum platelet aggregation values, mean ± SD ([3]; 32 mg s.c., 4 h): 91.2 ± 1.9%
% IPA (inhibition of platelet aggregation) calculated using maximum platelet aggregation values, mean ± SD ([3]; 32 mg s.c., 5 h): 92.1 ± 2.6%
% IPA (inhibition of platelet aggregation) calculated using maximum platelet aggregation values, mean ± SD ([3]; 32 mg s.c., 12 h): 83.5 ± 12.9%
% IPA (inhibition of platelet aggregation) calculated using maximum platelet aggregation values, mean ± SD ([3]; 32 mg s.c., 48 h): 29.8 ± 20.9%
time post dosing at which peak % IPA was achieved ([3]; at each dose level (1 to 32 mg s.c.)): 15 to 30 min
peak % IPA ([3]; doses ≥4 mg s.c.): exceeded 85%
peak % IPA ([3]; doses ≥8 mg s.c.): exceeded 85%
time in which peak % IPA exceeded 85% ([3]; doses ≥8 mg s.c.): less than 15 min
